Measurements from patent US20220305019A1, “PARAXANTHINE-BASED COMPOSITIONS FOR PROMOTING WEIGHT LOSS” (Ingenious Ingredients, LP, priority 2021, published 2022).

Key:
Assay type in all cases: in vivo, human
[1] = Appetite visual analog scale (VAS) after oral ingestion, crossover, two participants; set-up: Appetite Visual Analog Scale / Appetite Visual Analog Scale MEAN: scale not given here; settings: for Appetite Visual Analog Scale MEAN: mean 30-180 min
Description: All supplements were orally ingested with 8 fluid ounces of cold tap water. The order of administration for all interventions was randomized using a random allocation software to ensure randomization and to avoid order effects. […] All study visits took place between 0600-1000 hours. At least 72 hours of rest will take place between each condition.

[2] = Respiratory quotient (RQ=VCO2/VO2) after oral ingestion, crossover, two participants; settings: 100 mg PX
Description: (§1) Upon determination of baseline respiratory quotient (RQ=VCO2/VO2) two participants were assigned in a randomized, double-blind, placebo-controlled, crossover fashion to ingest a non-energetic placebo (maltodextrin) or a 100 mg paraxanthine (PX). All supplements were orally ingested with 8 fluid ounces of cold tap water. The order of administration for all interventions was randomized using a random allocation software to ensure randomization and to avoid order effects. After ingestion, participants completed all assessments in an identical fashion 30, 60, 90, 120, and 180 minutes after ingestion of their assigned supplement. All study visits took place between 0600-1000 hours. At least 72 hours of rest took place between each condition.
The lower the RQ, the more fat that is being oxidized for body energy needs. The closer to 1.0 the more carbohydrate is being burned for energy needs. If numbers are lower, more fat is being oxidized. PX reduced the respiratory quotient by more than 10% compared to placebo, increasing fat oxidation (“fat burning”).

[3] = Resting energy expenditure after oral ingestion of PX, crossover, two participants
Description: as §1, with “resting energy expenditure,” for “respiratory quotient (RQ=VCO2/VO2)”, “(maltodextrin),” for “(maltodextrin) or a”, “(PX), 200 mg PX or 300 mg PX.” for “(PX).”

[4] = Swagger visual analog scale (VAS) after oral ingestion, crossover, two participants; set-up: Swagger (Visual Analog Scale) / Swagger VAS MEAN: scale not given here; settings: 100 mg PX
Description: as §1, with “All” for “Upon determination of baseline respiratory quotient (RQ=VCO2/VO2) two participants were assigned in a randomized, double-blind, placebo-controlled, crossover fashion to ingest a non-energetic placebo (maltodextrin) or a 100 mg paraxanthine (PX). All”

[5] = Self-reported swagger after consuming paraxanthine (individual reports); settings: person

In the case of Cn1c(=O)[nH]c2ncn(C)c2c1=O [PX, paraxanthine], the “reduction of mean appetite compared to placebo” value ([1]; 100 mg PX) is reported as 38.5%, the “appetite reduction compared to CA” value ([1]; 100 mg PX and 300 mg PX vs 200 mg CA) is reported as “greater reduction in appetite compared to CA” and the “Appetite Visual Analog Scale” value ([1]; 100 mg PX, 30 min, person one) is reported as 29. For the same compound, the “Appetite Visual Analog Scale” value ([1]; 100 mg PX, 30 min, person two) was 70, the “Appetite Visual Analog Scale” value ([1]; 100 mg PX, 60 min, person one) was 27 and the “Appetite Visual Analog Scale” value ([1]; 100 mg PX, 60 min, person two) was 65. The “Appetite Visual Analog Scale” value ([1]; 100 mg PX, 90 min, person one) was 25, the “Appetite Visual Analog Scale” value ([1]; 100 mg PX, 90 min, person two) was 60 and the “Appetite Visual Analog Scale” value ([1]; 100 mg PX, 120 min, person one) was 29. For the same compound, the “Appetite Visual Analog Scale” value ([1]; 100 mg PX, 120 min, person two) was 85, the “Appetite Visual Analog Scale” value ([1]; 100 mg PX, 180 min, person one) was 35 and the “Appetite Visual Analog Scale” value ([1]; 100 mg PX, 180 min, person two) was 90. For the same compound, the “Appetite Visual Analog Scale MEAN” value ([1]; 100 mg PX, Average of both) was 51.5, the “Appetite Visual Analog Scale MEAN” value ([1]; 100 mg PX, person one) was 29.0 and the “Appetite Visual Analog Scale MEAN” value ([1]; 100 mg PX, person two) was 74.0. For the same compound, the “Appetite VAS mean Δ vs. PLA” value ([1]; 100 mg PX, person one) was −65.2, the “Appetite VAS mean Δ vs. PLA” value ([1]; 100 mg PX, person two) was “+0.8” and the “reduction of mean appetite compared to placebo” value ([1]; 300 mg PX) was 43.1%. For the same compound, the “Appetite Visual Analog Scale” value ([1]; 300 mg PX, 30 min, person one) was 24, the “Appetite Visual Analog Scale” value ([1]; 300 mg PX, 30 min, person two) was 65 and the “Appetite Visual Analog Scale” value ([1]; 300 mg PX, 60 min, person one) was 30. The “Appetite Visual Analog Scale” value ([1]; 300 mg PX, 60 min, person two) was 60, the “Appetite Visual Analog Scale” value ([1]; 300 mg PX, 90 min, person one) was 29 and the “Appetite Visual Analog Scale” value ([1]; 300 mg PX, 90 min, person two) was 55. For the same compound, the “Appetite Visual Analog Scale” value ([1]; 300 mg PX, 120 min, person one) was 27, the “Appetite Visual Analog Scale” value ([1]; 300 mg PX, 120 min, person two) was 60 and the “Appetite Visual Analog Scale” value ([1]; 300 mg PX, 180 min, person one) was 26. For the same compound, the “Appetite Visual Analog Scale” value ([1]; 300 mg PX, 180 min, person two) was 80, the “Appetite Visual Analog Scale MEAN” value ([1]; 300 mg PX, Average of both) was 45.6 and the “Appetite Visual Analog Scale MEAN” value ([1]; 300 mg PX, person one) was 27.2. For the same compound, the “Appetite Visual Analog Scale MEAN” value ([1]; 300 mg PX, person two) was 64.0, the “Appetite VAS mean Δ vs. 100 mg PX” value ([1]; 300 mg PX, person one) was −1.8 and the “Appetite VAS mean Δ vs. PLA” value ([1]; 300 mg PX, person one) was −67.0. The “Appetite VAS mean Δ vs. 100 mg PX” value ([1]; 300 mg PX, person two) was −10.0, the “Appetite VAS mean Δ vs. PLA” value ([1]; 300 mg PX, person two) was −9.2 and the “reduction of respiratory quotient compared to placebo” value [2] was “more than 10%”. The “Respiratory Quotient” value ([2]; 30 min, person one) was 0.68, the “Respiratory Quotient” value ([2]; 30 min, person two) was 0.81 and the “Respiratory Quotient” value ([2]; 60 min, person one) was 0.66. For the same compound, the “Respiratory Quotient” value ([2]; 60 min, person two) was 0.74, the “Respiratory Quotient” value ([2]; 90 min, person one) was 0.72 and the “Respiratory Quotient” value ([2]; 90 min, person two) was 0.74. For the same compound, the “Respiratory Quotient” value ([2]; 120 min, person one) was 0.70, the “Respiratory Quotient” value ([2]; 120 min, person two) was 0.69 and the “Respiratory Quotient” value ([2]; 180 min, person one) was 0.77. For the same compound, the “Respiratory Quotient” value ([2]; 180 min, person two) was 0.70, the “Respiratory Quotient MEAN” value ([2]; Average of both) was 0.725 and the “Respiratory Quotient MEAN” value ([2]; person one) was 0.71. The “Respiratory Quotient MEAN Δ from 0” value ([2]; person one) was −0.014, the “Respiratory Quotient MEAN” value ([2]; person two) was 0.74 and the “Respiratory Quotient MEAN Δ from 0” value ([2]; person two) was −0.004. The “Respiratory Quotient” value ([2]; time 0 (baseline), person one) was 0.72, the “Respiratory Quotient” value ([2]; time 0 (baseline), person two) was 0.74 and the “Resting Energy Expenditure” value ([3]; 100 mg PX, 30 min, person one) was 1,943 kcal/day. For the same compound, the “Resting Energy Expenditure” value ([3]; 100 mg PX, 30 min, person two) was 1,690 kcal/day, the “Resting Energy Expenditure” value ([3]; 100 mg PX, 60 min, person one) was 1,862 kcal/day and the “Resting Energy Expenditure” value ([3]; 100 mg PX, 60 min, person two) was 1,809 kcal/day. The “Resting Energy Expenditure” value ([3]; 100 mg PX, 90 min, person one) was 1,921 kcal/day, the “Resting Energy Expenditure” value ([3]; 100 mg PX, 90 min, person two) was 1,899 kcal/day and the “Resting Energy Expenditure” value ([3]; 100 mg PX, 120 min, person one) was 1,990 kcal/day. The “Resting Energy Expenditure” value ([3]; 100 mg PX, 120 min, person two) was 1,787 kcal/day, the “Resting Energy Expenditure” value ([3]; 100 mg PX, 180 min, person one) was 2,129 kcal/day and the “Resting Energy Expenditure” value ([3]; 100 mg PX, 180 min, person two) was 1,796 kcal/day. The “Resting Energy Expenditure MEAN” value ([3]; 100 mg PX, Average of both) was 1,883 kcal/day, the “Resting Energy Expenditure MEAN” value ([3]; 100 mg PX, person one) was 1,969 kcal/day and the “Resting Energy Expenditure MEAN” value ([3]; 100 mg PX, person two) was 1,796 kcal/day. The “Resting Energy Expenditure” value ([3]; 200 mg PX, 30 min, person one) was 2,007 kcal/day, the “Resting Energy Expenditure” value ([3]; 200 mg PX, 30 min, person two) was 1,703 kcal/day and the “Resting Energy Expenditure” value ([3]; 200 mg PX, 60 min, person one) was 1,702 kcal/day. The “Resting Energy Expenditure” value ([3]; 200 mg PX, 60 min, person two) was 1,782 kcal/day, the “Resting Energy Expenditure” value ([3]; 200 mg PX, 90 min, person one) was 2,048 kcal/day and the “Resting Energy Expenditure” value ([3]; 200 mg PX, 90 min, person two) was 1,864 kcal/day. The “Resting Energy Expenditure” value ([3]; 200 mg PX, 120 min, person one) was 2,221 kcal/day, the “Resting Energy Expenditure” value ([3]; 200 mg PX, 120 min, person two) was 1,872 kcal/day and the “Resting Energy Expenditure” value ([3]; 200 mg PX, 180 min, person one) was 2,067 kcal/day. For the same compound, the “Resting Energy Expenditure” value ([3]; 200 mg PX, 180 min, person two) was 1,853 kcal/day, the “Resting Energy Expenditure MEAN” value ([3]; 200 mg PX, Average of both) was 1,912 kcal/day and the “Resting Energy Expenditure MEAN” value ([3]; 200 mg PX, person one) was 2,009 kcal/day. The “Resting Energy Expenditure MEAN” value ([3]; 200 mg PX, person two) was 1,815 kcal/day, the “Resting Energy Expenditure” value ([3]; 300 mg PX, 30 min, person one) was 2,267 kcal/day and the “Resting Energy Expenditure” value ([3]; 300 mg PX, 30 min, person two) was 1,840 kcal/day. For the same compound, the “Resting Energy Expenditure” value ([3]; 300 mg PX, 60 min, person one) was 2,354 kcal/day, the “Resting Energy Expenditure” value ([3]; 300 mg PX, 60 min, person two) was 1,749 kcal/day and the “Resting Energy Expenditure” value ([3]; 300 mg PX, 90 min, person one) was 2,312 kcal/day. For the same compound, the “Resting Energy Expenditure” value ([3]; 300 mg PX, 90 min, person two) was 1,769 kcal/day, the “Resting Energy Expenditure” value ([3]; 300 mg PX, 120 min, person one) was 2,436 kcal/day and the “Resting Energy Expenditure” value ([3]; 300 mg PX, 120 min, person two) was 1,831 kcal/day. For the same compound, the “Resting Energy Expenditure” value ([3]; 300 mg PX, 180 min, person one) was 2,402 kcal/day, the “Resting Energy Expenditure” value ([3]; 300 mg PX, 180 min, person two) was 1,913 kcal/day and the “Resting Energy Expenditure MEAN” value ([3]; 300 mg PX, Average of both) was 2,098 kcal/day. The “Resting Energy Expenditure MEAN” value ([3]; 300 mg PX, person one) was 2,374 kcal/day, the “Resting Energy Expenditure MEAN” value ([3]; 300 mg PX, person two) was 1,822 kcal/day and the “increase of swagger over 200 mg caffeine ingestion” value [4] was 26%. The “increase of swagger over placebo” value [4] was 21%, the “Swagger (Visual Analog Scale)” value ([4]; 30 min, person one) was 91 and the “Swagger (Visual Analog Scale)” value ([4]; 30 min, person two) was 71. The “Swagger (Visual Analog Scale)” value ([4]; 60 min, person one) was 80, the “Swagger (Visual Analog Scale)” value ([4]; 60 min, person two) was 71 and the “Swagger (Visual Analog Scale)” value ([4]; 90 min, person one) was 89. The “Swagger (Visual Analog Scale)” value ([4]; 90 min, person two) was 80, the “Swagger (Visual Analog Scale)” value ([4]; 120 min, person one) was 81 and the “Swagger (Visual Analog Scale)” value ([4]; 120 min, person two) was 75. For the same compound, the “Swagger (Visual Analog Scale)” value ([4]; 180 min, person one) was 90, the “Swagger (Visual Analog Scale)” value ([4]; 180 min, person two) was 70 and the “Swagger VAS MEAN” value ([4]; Average of both) was 79.8. The “Swagger VAS MEAN” value ([4]; person one) was 86.2, the “Swagger VAS mean Δ vs. PLA” value ([4]; person one) was “+7.6” and the “Swagger VAS MEAN” value ([4]; person two) was 73.4. The “Swagger VAS mean Δ vs. PLA” value ([4]; person two) was “+20.0”, the self-reported swagger ([5]; 50 mg daily during two weeks) was “increase in swagger” and the self-reported swagger ([5]; 100 mg, workplace and team sports) was “significant increases in swagger”. The self-reported swagger ([5]; 200 mg) was “an increase in swagger” and the self-reported swagger ([5]; 400 mg) was “a significant boost in swagger”.
